Results published in paper PMC10046687, “Residues of Legume AG41 Peptide Crucial to Its Bio-Insecticidal Activity” (Biomolecules, 2023).
Where two headings read alike, the source gives them in different places. Bridge positions count the residues as written; N and C are the ends. Ends that are not written are not given here.

Legend:
[1] = target: PA1b receptor; test: Competitive ligand binding with 125I-PA1b on microsomal protein; conditions: competition with 0.4 nM 125I-PA1b, 20 µg microsomal protein per assay, peptide 0.01 to 1000 nM, mean ± standard error, read-out: Ki (affinity to the PA1b receptor)
Procedure: To evaluate the affinity of synthetic AG41 and its mutants to PA1b receptor, ligand binding studies were conducted ^125I-toxin [29]. […] Total binding was assessed using 20 µg per assay of microsomal protein (sedimenting at 45,000 g) and 0.4 nM of I^125-PA1b, while in the non-specific binding assays 1000 nM of unlabeled AG41 or alanine mutant peptide was added. The level of specific binding (i.e., total binding minus non-specific binding) was estimated based on three replicates. Competitive experiments were performed with 0.4 nM ^125I-PA1b (specific radioactivity of approximately 1000 Ci.mmol^−1) and competition was performed with AG41 and its alanine mutant peptides at concentrations ranging from 0.01 to 1000 nM.
(§1) The experimental Ki and LD5O data were assessed separately by non-linear regression analysis using the SIMFIT software package. Biological results are expressed as mean ± S.E. (standard error).

[2] = tested on: Spodoptera frugiperda Sf9 insect cells; test: Viability assay (MTT) on cultured Sf9 insect cells; assay type: cell-based; conditions: 24 h exposure, 27 °C, each concentration in triplicate, mean ± standard error, SEM
Procedure: Viability assays were performed on Spodoptera frugiperda Sf9 insect cells in culture using the 3-(4,5-dimethylthiazol-2-yl)-2,5-diphenyltetrazolium bromide (MTT) protocol. Briefly, Sf9 cells lines were grown at 27 °C in Lonza’s culture medium, supplemented with 5% fetal bovine serum (FBS) and 0.1% gentamicin. Sf9 cells were seeded, in 96-well plates, 24 h prior to the experiments (15,000 cells/well) and were exposed to increasing concentrations of AG41 and its alanine mutant peptides for 24 h. Each concentration was performed in triplicate. Cell viability was determined by a colorimetric assay based on the ability of viable cells to reduce MTT. Cells were loaded with MTT solution (0.5 mg ml^−^1) and incubated at 27 °C for 2 h. Cell homogenates were used to measure absorbance at 550 nm using a microplate reader (MR 7000, Dynatech Laboratories Inc., Richmond, CA, USA).
as §1

Sequence	Ki [1]	Ki ([1]; SEM)	LD50 (insect cell toxicity) [2]
ASCPNVGAVCSPAETKPCGNVKDCRCLPWGLFFGTCINPTG (also: bicyclic or more (positions not given here)) [F13A, single point alanine mutant of AG41 at Phe-13]	> 1000 nM	–	–
ASCPNVGAVCSPFATKPCGNVKDCRCLPWGLFFGTCINPTG (also: bicyclic or more (positions not given here)) [E14A, single point alanine mutant of AG41 at Glu-14]	–	1.2 ± 1.3 nM	–
ASCPNVGAVCSPFETAPCGNVKDCRCLPWGLFFGTCINPTG (disulfide 3-24, 10-26, 18-36) [K16A]	–	3.6 ± 1.6 nM	10.0 ± 4.0 nM
ASCPNVGAVCSPFETKPCGNVADCRCLPWGLFFGTCINPTG (disulfide 3-24, 10-26, 18-36) [K22A]	–	3.2 ± 1.7 nM	14.2 ± 6.3 nM
ASCPNVGAVCSPFETKPCGNVKACRCLPWGLFFGTCINPTG (disulfide 3-24, 10-26, 18-36) [D23A]	–	1.2 ± 1.6 nM	24 ± 9 nM
ASCPNVGAVCSPFETKPCGNVKDCACLPWGLFFGTCINPTG (also: bicyclic or more (positions not given here)) [R25A, single point alanine mutant of AG41 at Arg-25]	> 1000 nM	–	–
ASCPNVGAVCSPFETKPCGNVKDCRCAPWGLFFGTCINPTG (disulfide 3-24, 10-26, 18-36) [L27A]	–	486 ± 11 nM	907 ± 46 nM
ASCPNVGAVCSPFETKPCGNVKDCRCLPAGLFFGTCINPTG (disulfide 3-24, 10-26, 18-36) [W29A]	–	36.3 ± 6.7 nM	89.0 ± 3.7 nM
ASCPNVGAVCSPFETKPCGNVKDCRCLPWGAFFGTCINPTG (also: bicyclic or more (positions not given here)) [L31A, single point alanine mutant of AG41 at Leu-31]	–	263 ± 8 nM	–
ASCPNVGAVCSPFETKPCGNVKDCRCLPWGLAFGTCINPTG (disulfide 3-24, 10-26, 18-36) [F32A]	–	39.8 ± 15 nM	122 ± 12 nM
ASCPNVGAVCSPFETKPCGNVKDCRCLPWGLFAGTCINPTG (disulfide 3-24, 10-26, 18-36) [F33A]	–	15 ± 4.8 nM	210 ± 8 nM
ASCPNVGAVCSPFETKPCGNVKDCRCLPWGLFFGTCINPTG (disulfide 3-24, 10-26, 18-36) [AG41]	–	1.3 ± 0.6 nM	5.6 ± 1.8 nM
